# Test results taken from US5223169A, “Hydrolase surfactant systems and their use in laundering” (priority 1991, dated 1993).
# How the values were obtained:
# Test in all cases: pH-stat assay of triglyceride emulsion hydrolysis; critical oil-to-surfactant ratio
# [1] = system: enzyme from P. putida ATCC 53552 (lipase GC-1065); assay type: biochemical, Pseudomonas putida; settings: for Enzyme Activity (initial rate of hydrolysis): enzyme 2 ppm; for Specific Activity determined from initial rates, GC-1065, High / Critical Ratio, GC-1065, High / Critical Ratio, GC-1065, Low / Specific Activity determined from initial rates, GC-1065, Low: trioctanoin emulsions; for Specific Activity determined from initial rates, GC-1065, High: high surfactant conc. as E41; for Critical Ratio, GC-1065, High / Critical Ratio, GC-1065, Low: lipase ~2 ppm; for Critical Ratio, GC-1065, High: high surfactant conc.: SDS 10 mM, Neodol 25-3S 10 mM, Surfonic JL-80X 5 mM, Triton X-100 10 mM, C16 DAPS 10 mM; for Critical Ratio, GC-1065, Low: low surfactant conc.: SDS 2 mM, Triton X-100 2 mM, C16 DAPS 0.5 mM; for Specific Activity determined from initial rates, GC-1065, Low: low surfactant conc. as E40
# Text: (§1) To determine the critical ratio for any specific enzyme-surfactant combination, aliquots of an aqueous solution, each containing a determined (constant) amount of the enzyme which is effective in the absence of any surfactant to hydrolyze the triglycerides in an oily stain on a determined (constant) amount of a fabric soiled by a determined (constant) amount of a triglyceride oil, are mixed with a determined (constant) amount of a surfactant which is within the range of the amounts conventionally present in home laundry solutions, e.g., from about 0.2 to 1.5. mM, and which is effective to inhibit the hydrolyzing activity of the enzyme. To the aliquots are added a hydrolysis activator, e.g., trioctanoin, in increasing amounts and the hydrolyzing activity of the enzyme in the various solutions is determined.
# (§2) The experiments determining enzyme activity, such as those set out in Tables IA and IB, were carried out as follows:
# (§3) The desired amount of triglyceride was weighed into an appropriate size beaker, on a Mettler balance (model number AE163). The corresponding amount of surfactant was added to the triglyceride, from a previously prepared aqueous surfactant stock solution, and the triglyceride and surfactant mixed manually. The sample was then adjusted to the desired weight using doubly distilled H2 O. Emulsification of the sample was carried out, prior to assaying enzyme activity, with a probe sonicator (Braun-Sonic model 2000), on ice, for approx. 2 minutes.
# (§4) (ii) Enzyme Activity Measurement:
# (§5) This was achieved by monitoring the rate of acid liberation, from the enzymatic hydrolysis of the triglycerides in the emulsion. The assay was initiated by adding approx. 2 ppm lipase to 10 ml of the prepared emulsion. The acid liberated was monitored by autotitration, on a Radiometer pH-stat (model number ABU80) to an endpoint of a pH of 10. Initial rates were recorded for the first 5 minutes of the reaction, and the reaction rates reported as μmole H^+ titrated . min ^-1 mgE^-1. Occasionally enzyme activity is reported as % total oil hydrolyzed in 14 min. In these examples, the reaction was allowed to run for 14 min. and the amount of acid titrated recorded. The % total oil (triglyceride) hydrolyzed was then calculated by dividing the recorded value with the theoretically calculated value assuming three equivalents of oleic acid was produced for each triglyceride equivalent. All assays were run at ambient temperatures.
# [2] = system: Enzyme Amano 68S; assay type: biochemical, P. sp.; settings: for Critical Ratio / Enzyme Activity: surfactant conc.: SDS 1 mM
# Text: as §1, §2, §3, §4, §5
# [3] = target: T1, Enzyme Amano P (Burkholderia cepacia, UniProt P22088); assay type: biochemical, P. fluorescens
# T1 construct: purchased Amano Co
# T1 sequence (P22088 45-364): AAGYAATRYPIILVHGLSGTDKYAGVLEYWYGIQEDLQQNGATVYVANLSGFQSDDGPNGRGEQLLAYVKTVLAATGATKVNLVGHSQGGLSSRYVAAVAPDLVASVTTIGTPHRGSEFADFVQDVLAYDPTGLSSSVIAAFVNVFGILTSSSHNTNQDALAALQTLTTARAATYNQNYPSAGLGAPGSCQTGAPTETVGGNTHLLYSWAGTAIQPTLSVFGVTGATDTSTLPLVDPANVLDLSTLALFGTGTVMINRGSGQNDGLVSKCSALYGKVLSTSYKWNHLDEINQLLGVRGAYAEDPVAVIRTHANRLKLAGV
# Text: as §1, §2, §3, §4, §5
# [4] = C12 LAS 1 mM, Neodol 25-9 0.5 mM, Neodol 25-3S 2 mM, Surfonic JL-80X 0.5 mM
# [5] = Table II, trioctanoin, surfactant conc.: SDS 2 mM, C12 LAS 1 mM, Neodol 25-3S 2 mM, Neodol 25-9 0.5 mM, Surfonic JL80X 0.5 mM, Triton X100 2 mM
# [6] = Table Summary, second block of lines (corresponds to triolein Tables VI-IX)
# [7] = Table VI, triolein, surfactant conc.: SDS 1 mM, C12 LAS 0.5 mM, Neodol 25-3S 1 mM, Neodol 25-9 0.5 mM, Surfonic JL80X 0.5 mM
# [8] = triolein emulsions, high conc.: SDS 10 mM, C12 LAS 5 mM, Neodol 25-9 5 mM, Neodol 25-3S 5 mM, Surfonic JL-80X 2.5 mM
# [9] = Table IV, trioctanoin, C12 LAS 0.2 mM, Neodol 25-3S 0.5 mM, Neodol 25-9 0.5 mM, Surfonic JL80X 0.5 mM
# [10] = Table VIII, triolein, C12 LAS 0.5 mM, Neodol 25-3S 0.5 mM, Neodol 25-9 0.5 mM, Surfonic JL80X 2.5 mM
# [11] = Table III, trioctanoin, surfactant conc.: SDS 2 mM, C12 LAS 1 mM, Neodol 25-3S 2 mM, Neodol 25-9 0.5 mM, Surfonic JL80X 0.5 mM
# [12] = Table VII, triolein, surfactant conc.: SDS 1 mM, others 0.5 mM
molecule,measurement,setting,value
CCCCCCCCCCCCCCCC[N+](C)(C)CCCS(=O)(=O)[O-] [C16 DAPS],Enzyme Activity (initial rate of hydrolysis),"[1]; trioctanoin 0.5 mM, surfactant 0.5 mM, system ratio 1",0 μmole H^+ released min^-1 mgE^
same,Enzyme Activity (initial rate of hydrolysis),"[1]; trioctanoin 2.5 mM, surfactant 0.5 mM, system ratio 5",0 μmole H^+ released min^-1 mgE^
same,Enzyme Activity (initial rate of hydrolysis),"[1]; trioctanoin 5 mM, surfactant 0.5 mM, system ratio 10",0 μmole H^+ released min^-1 mgE^
same,Enzyme Activity (initial rate of hydrolysis),"[1]; trioctanoin 10 mM, surfactant 0.5 mM, system ratio 20",334 μmole H^+ released min^-1 mgE^
same,Enzyme Activity (initial rate of hydrolysis),"[1]; trioctanoin 10 mM, surfactant 10 mM, system ratio 1",0 μmole H^+ released min^-1 mgE^
same,Enzyme Activity (initial rate of hydrolysis),"[1]; trioctanoin 15 mM, surfactant 0.5 mM, system ratio 30",405 μmole H^+ released min^-1 mgE^
same,Enzyme Activity (initial rate of hydrolysis),"[1]; trioctanoin 20 mM, surfactant 0.5 mM, system ratio 40",370 μmole H^+ released min^-1 mgE^
same,Enzyme Activity (initial rate of hydrolysis),"[1]; trioctanoin 50 mM, surfactant 10 mM, system ratio 5",0 μmole H^+ released min^-1 mgE^
same,Enzyme Activity (initial rate of hydrolysis),"[1]; trioctanoin 200 mM, surfactant 10 mM, system ratio 20",398 μmole H^+ released min^-1 mgE^
same,Enzyme Activity (initial rate of hydrolysis),"[1]; trioctanoin 300 mM, surfactant 10 mM, system ratio 30",370 μmole H^+ released min^-1 mgE^
same,Enzyme Activity (initial rate of hydrolysis),"[1]; trioctanoin 400 mM, surfactant 10 mM, system ratio 40",417 μmole H^+ released min^-1 mgE^
same,critical ratio (system ratio of oil to surfactant at which enzymatic activity begins),"[1]; trioctanoin as oil, surfactant 0.5 and 10 mM (Table IA)",10-20
same,"Specific Activity determined from initial rates, GC-1065, High",[1],450 μeq acid/min.mg
same,"Critical Ratio, GC-1065, High","[1]; C12 LAS 5 mM, Neodol 25-9 5 mM",10-20
same,"Critical Ratio, GC-1065, Low",[1]; [4],10-20
same,"Specific Activity determined from initial rates, GC-1065, Low",[1],450 μeq acid/min.mg
"CCCCCCCCCCCC(=O)N(CC)CC [N,N-diethyldodecanamide]",Enzyme Activity,"[1]; no trioctanoin, N,N-diethyldodecanamide 10.0 mm, Neodol 25-9 0.5 mm",< 5 μeq of fatty acid produced in 14 minutes
same,Enzyme Activity,"[1]; trioctanoin 2.5 mm, N,N-diethyldodecanamide 2.5 mm, Neodol 25-9 0.5 mm",5 μeq of fatty acid produced in 14 minutes
same,Enzyme Activity,"[1]; trioctanoin 2.5 mm, N,N-diethyldodecanamide 5.0 mm, Neodol 25-9 0.5 mm",12 μeq of fatty acid produced in 14 minutes
same,Enzyme Activity,"[1]; trioctanoin 2.5 mm, N,N-diethyldodecanamide 7.5 mm, Neodol 25-9 0.5 mm",19 μeq of fatty acid produced in 14 minutes
"CCCCCCCCCCCCOS(=O)(=O)[O-].[Na+] [SDS, sodium dodecylsulfate]",Critical Ratio,[1]; [5],0.5-5.0
same,Enzyme Activity,[1]; [5],325 μmole H^+ released min^-1 mgE^
same,"critical ratio class, enzyme From ATCC 53552",[1]; [6],0 (means a critical ratio of 1.0-10)
same,Critical Ratio,[1]; [7],5-10
same,Enzyme Activity,[1]; [7],60 μmole H^+ released min^-1 mgE^
same,"Specific Activity determined from initial rates, GC-1065, High",[1],450 μeq acid/min.mg
same,"Critical Ratio, GC-1065, High","[1]; C12 LAS 5 mM, Neodol 25-9 5 mM",1-3
same,"Critical Ratio, GC-1065, Low",[1]; [4],0.5-5.0
same,"Specific Activity determined from initial rates, GC-1065, Low",[1],325 μeq acid/min.mg
same,"Activity (specific hydrolysis activity from initial rates), GC-1065, High","[1]; triolein emulsions, high conc. as E55",50 μeq acid/min./mg
same,"R, critical (minimum activating molar) ratio, GC-1065, High",[1]; [8],1-5
same,"Activity (specific hydrolysis activity from initial rates), GC-1065, Low","[1]; triolein emulsions, low conc. as E54",60 μeq acid/min./mg
same,"R, critical (minimum activating molar) ratio, GC-1065, Low","[1]; triolein emulsions, low conc.: SDS 1 mM, C12 LAS 0.5 mM, Neodol 25-9 0.5 mM, Neodol 25-3S 1 mM, Surfonic JL-80X 0.5 mM",5-10
same,Critical Ratio,[2]; [9],0.1-0.5
same,Enzyme Activity,[2]; [9],400 μmole H^+ released min^-1 mgE^
same,"critical ratio class, Amano 68S",[2]; [6],0 (means a critical ratio of 1.0-10)
same,Critical Ratio,[2]; [10],1-5
same,Enzyme Activity,[2]; [10],200 μmole H^+ released min^-1 mgE^
same,"Specific Activity determined from initial rates, AMANO 68S, High","[2]; trioctanoin emulsions, high surfactant conc. as E45",1200 μeq acid/min.mg
same,"Critical Ratio, AMANO 68S, High","[2]; trioctanoin emulsions, lipase ~2 ppm, high conc.: SDS 10 mM, C12 LAS 2 mM, Neodol 25-9 5 mM, Neodol 25-3S 10 mM, Surfonic JL-80X 5 mM",10-15
same,"Critical Ratio, AMANO 68S, Low","[2]; trioctanoin emulsions, lipase ~2 ppm, low conc.: SDS 1 mM, C12 LAS 0.2 mM, Neodol 25-9 0.5 mM, Neodol 25-3S 0.5 mM, Surfonic JL-80X 0.5 mM",0.1-0.5
same,"Specific Activity determined from initial rates, AMANO 68S, Low","[2]; trioctanoin emulsions, low surfactant conc. as E44",400 μeq acid/min.mg
same,"Activity (specific hydrolysis activity from initial rates), AMANO 68S, High","[2]; triolein emulsions, high conc. as E59",175 μeq acid/min./mg
same,"R, critical (minimum activating molar) ratio, AMANO 68S, High","[2]; triolein emulsions, high conc.: SDS 10 mM, C12 LAS 5 mM, Neodol 25-9 5 mM, Neodol 25-3S 5 mM, Surfonic JL-80X 2.5 mm",5-10
same,"Activity (specific hydrolysis activity from initial rates), AMANO 68S, Low","[2]; triolein emulsions, low conc. as E58",200 μeq acid/min./mg
same,"R, critical (minimum activating molar) ratio, AMANO 68S, Low","[2]; triolein emulsions, low conc.: SDS 1 mM, C12 LAS 0.5 mM, Neodol 25-9 0.5 mM, Neodol 25-3S 0.5 mM, Surfonic JL-80X 2.5 mM",1-5
same,Critical Ratio,[3]; [11],1-5
same,Enzyme Activity,[3]; [11],100 μmole H^+ released min^-1 mgE^
same,"critical ratio class, Amano P",[3]; [6],0 (means a critical ratio of 1.0-10)
same,Critical Ratio,[3]; [12],5-10
same,Enzyme Activity,[3]; [12],160 μmole H^+ released min^-1 mgE^
same,"Specific Activity determined from initial rates, AMANO P, High","[3]; trioctanoin emulsions, high surfactant conc. as E43",200 μeq acid/min.mg
same,"Critical Ratio, AMANO P, High","[3]; trioctanoin emulsions, lipase ~2 ppm, high conc.: SDS 10 mM, C12 LAS 5 mM, Neodol 25-9 5 mM, Neodol 25-3S 20 mM, Surfonic JL-80X 5 mM",5-10
same,"Critical Ratio, AMANO P, Low","[3]; trioctanoin emulsions, lipase ~2 ppm, low conc.: SDS 2 mM, C12 LAS 1 mM, Neodol 25-9 0.5 mM, Neodol 25-3S 2.0 mM, Surfonic JL-80X 0.5 mM",1-5
same,"Specific Activity determined from initial rates, AMANO P, Low","[3]; trioctanoin emulsions, low surfactant conc. as E42",100 μeq acid/min.mg
same,"Activity (specific hydrolysis activity from initial rates), AMANO P, High","[3]; triolein emulsions, high conc. as E57",150 μeq acid/min./mg
same,"R, critical (minimum activating molar) ratio, AMANO P, High",[3]; [8],5-10
same,"Activity (specific hydrolysis activity from initial rates), AMANO P, Low","[3]; triolein emulsions, low conc. as E56",160 μeq acid/min./mg
same,"R, critical (minimum activating molar) ratio, AMANO P, Low","[3]; triolein emulsions, low conc.: SDS 1 mM, others 0.5 mM",5-10
"CCCCCCCCCCCCCCCC [Hexadecane, hexadecane]",Enzyme Activity,"[1]; triolein 0.3 mM + hexadecane 1.2 mM, Surfonic JL-80X 0.3 mM, system ratio 5",8 μmole H^+ released min^-1 mgE^
same,Enzyme Activity,"[1]; triolein 0.3 mM + hexadecane 1.2 mM, Surfonic JL-80X 0.3 mM, system ratio 5, listed as hexadecane",active
same,Enzyme Activity,"[3]; trioctanoin 5 mm + hexadecane 10 mm, Neodol 25-3S 0.5, system ratio 40",45 μmole H^+ released min^-1 mgE^
Triton X-100,Critical Ratio,[1]; [5],10-15
same,Enzyme Activity,[1]; [5],450 μmole H^+ released min^-1 mgE^
same,"Specific Activity determined from initial rates, GC-1065, High",[1],400 μeq acid/min.mg
same,"Critical Ratio, GC-1065, High","[1]; C12 LAS 5 mM, Neodol 25-9 5 mM",15-20
same,"Critical Ratio, GC-1065, Low",[1]; [4],10-15
same,"Specific Activity determined from initial rates, GC-1065, Low",[1],450 μeq acid/min.mg
"CCCCCCCC/C=C\CCCCCCCC(=O)[O-].[Na+] [Na Oleate, sodium oleate]",Enzyme Activity,"[1]; triolein substrate, surfactant 0.3 mM, system ratio 1",0 μmole H^+ titrated . min ^-1 m
same,Enzyme Activity,"[1]; triolein substrate, surfactant 0.3 mM, system ratio 5",0 μmole H^+ titrated . min ^-1 m
same,Enzyme Activity,"[1]; triolein substrate, surfactant 0.3 mM, system ratio 10",0 μmole H^+ titrated . min ^-1 m
same,Enzyme Activity,"[1]; triolein substrate, surfactant 0.3 mM, system ratio 20",60 μmole H^+ titrated . min ^-1 m
same,Enzyme Activity,"[1]; triolein substrate, surfactant 0.3 mM, system ratio 30",90 μmole H^+ titrated . min ^-1 m
